The record followed here is ChEMBL document CHEMBL3991601, “The target landscape of clinical kinase drugs” (Science, 2017).

Each structure is given as a SMILES string. pKd: −log10 of the molar value. Active and inactive are the calls of the source. For most assays here, no stated cut-off is given here; in the data, actives have a measured Kd and inactives only a lower limit. Bounds are passed on as bounds.

The target of test [1] is Serine/threonine-protein kinase N3 (Homo sapiens, UniProt Q6P5Z2).
Serine/threonine-protein kinase N3, sequence (Q6P5Z2 whole entry): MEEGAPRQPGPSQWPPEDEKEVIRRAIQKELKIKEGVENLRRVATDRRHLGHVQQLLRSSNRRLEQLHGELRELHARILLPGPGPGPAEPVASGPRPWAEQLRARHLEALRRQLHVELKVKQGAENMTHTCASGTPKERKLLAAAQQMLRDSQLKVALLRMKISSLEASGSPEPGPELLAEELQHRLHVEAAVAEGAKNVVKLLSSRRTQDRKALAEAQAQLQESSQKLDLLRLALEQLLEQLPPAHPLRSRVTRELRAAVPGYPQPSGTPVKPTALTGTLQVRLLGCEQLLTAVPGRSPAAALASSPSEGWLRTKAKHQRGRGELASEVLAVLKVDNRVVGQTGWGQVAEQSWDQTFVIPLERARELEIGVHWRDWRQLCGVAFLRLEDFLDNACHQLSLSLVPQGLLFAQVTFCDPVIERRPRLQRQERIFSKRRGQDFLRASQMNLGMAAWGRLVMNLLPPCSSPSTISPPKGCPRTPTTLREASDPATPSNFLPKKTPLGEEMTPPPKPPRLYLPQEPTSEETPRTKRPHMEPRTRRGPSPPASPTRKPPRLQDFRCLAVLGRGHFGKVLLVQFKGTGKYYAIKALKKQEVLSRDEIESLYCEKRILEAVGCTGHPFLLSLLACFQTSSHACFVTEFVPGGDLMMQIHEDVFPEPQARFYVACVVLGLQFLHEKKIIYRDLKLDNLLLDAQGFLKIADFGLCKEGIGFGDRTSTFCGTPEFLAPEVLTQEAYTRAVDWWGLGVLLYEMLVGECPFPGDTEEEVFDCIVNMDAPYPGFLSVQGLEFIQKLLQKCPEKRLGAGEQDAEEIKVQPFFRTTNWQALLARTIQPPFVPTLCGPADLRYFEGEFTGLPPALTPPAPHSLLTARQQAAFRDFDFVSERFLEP
In another test the target is T1, Ephrin type-A receptor 1 (Homo sapiens, UniProt P21709).
T1 sequence (P21709 whole entry): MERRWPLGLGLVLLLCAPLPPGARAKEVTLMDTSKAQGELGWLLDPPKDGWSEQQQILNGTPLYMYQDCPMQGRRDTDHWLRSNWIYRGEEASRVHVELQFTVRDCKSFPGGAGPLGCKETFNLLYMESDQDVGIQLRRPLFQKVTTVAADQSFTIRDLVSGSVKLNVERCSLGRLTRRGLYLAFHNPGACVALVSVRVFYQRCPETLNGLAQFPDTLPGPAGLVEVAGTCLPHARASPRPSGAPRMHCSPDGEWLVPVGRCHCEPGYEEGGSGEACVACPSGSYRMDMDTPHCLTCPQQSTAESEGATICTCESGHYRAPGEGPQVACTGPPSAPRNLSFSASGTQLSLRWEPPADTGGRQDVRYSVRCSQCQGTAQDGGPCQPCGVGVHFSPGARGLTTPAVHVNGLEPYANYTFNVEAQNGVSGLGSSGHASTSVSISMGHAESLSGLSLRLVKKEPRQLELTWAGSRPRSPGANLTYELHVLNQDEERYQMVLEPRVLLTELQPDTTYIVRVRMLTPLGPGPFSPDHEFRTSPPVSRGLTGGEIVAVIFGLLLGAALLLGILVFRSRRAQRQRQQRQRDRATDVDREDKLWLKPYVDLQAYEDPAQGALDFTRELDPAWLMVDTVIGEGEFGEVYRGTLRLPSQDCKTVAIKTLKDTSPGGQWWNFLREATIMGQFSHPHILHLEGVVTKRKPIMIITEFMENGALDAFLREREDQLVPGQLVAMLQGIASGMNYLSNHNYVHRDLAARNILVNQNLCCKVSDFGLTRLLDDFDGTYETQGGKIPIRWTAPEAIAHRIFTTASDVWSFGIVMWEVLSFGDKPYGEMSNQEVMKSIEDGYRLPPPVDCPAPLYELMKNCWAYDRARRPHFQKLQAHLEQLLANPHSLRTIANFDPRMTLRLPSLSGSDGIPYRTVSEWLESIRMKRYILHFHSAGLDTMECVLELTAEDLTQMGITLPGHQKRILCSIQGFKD

The target in test [2] is Cyclin-dependent kinase 17 (Homo sapiens, UniProt Q00537).
Cyclin-dependent kinase 17, sequence (Q00537 whole entry): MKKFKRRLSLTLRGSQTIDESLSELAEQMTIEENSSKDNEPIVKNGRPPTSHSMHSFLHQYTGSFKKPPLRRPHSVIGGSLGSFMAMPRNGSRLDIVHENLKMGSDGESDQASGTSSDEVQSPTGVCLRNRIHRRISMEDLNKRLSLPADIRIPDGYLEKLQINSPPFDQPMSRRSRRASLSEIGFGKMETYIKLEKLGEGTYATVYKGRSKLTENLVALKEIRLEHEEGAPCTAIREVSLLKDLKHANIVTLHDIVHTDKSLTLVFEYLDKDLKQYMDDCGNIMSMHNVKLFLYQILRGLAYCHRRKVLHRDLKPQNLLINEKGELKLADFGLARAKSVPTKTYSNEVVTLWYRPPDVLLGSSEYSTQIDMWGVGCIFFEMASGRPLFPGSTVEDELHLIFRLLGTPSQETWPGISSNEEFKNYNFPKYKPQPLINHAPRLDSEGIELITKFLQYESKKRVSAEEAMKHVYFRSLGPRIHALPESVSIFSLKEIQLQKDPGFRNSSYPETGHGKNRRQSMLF
For test [3], the target named is T2, Cyclin-dependent kinase-like 5 (Homo sapiens, UniProt O76039).
T2 sequence (O76039 whole entry): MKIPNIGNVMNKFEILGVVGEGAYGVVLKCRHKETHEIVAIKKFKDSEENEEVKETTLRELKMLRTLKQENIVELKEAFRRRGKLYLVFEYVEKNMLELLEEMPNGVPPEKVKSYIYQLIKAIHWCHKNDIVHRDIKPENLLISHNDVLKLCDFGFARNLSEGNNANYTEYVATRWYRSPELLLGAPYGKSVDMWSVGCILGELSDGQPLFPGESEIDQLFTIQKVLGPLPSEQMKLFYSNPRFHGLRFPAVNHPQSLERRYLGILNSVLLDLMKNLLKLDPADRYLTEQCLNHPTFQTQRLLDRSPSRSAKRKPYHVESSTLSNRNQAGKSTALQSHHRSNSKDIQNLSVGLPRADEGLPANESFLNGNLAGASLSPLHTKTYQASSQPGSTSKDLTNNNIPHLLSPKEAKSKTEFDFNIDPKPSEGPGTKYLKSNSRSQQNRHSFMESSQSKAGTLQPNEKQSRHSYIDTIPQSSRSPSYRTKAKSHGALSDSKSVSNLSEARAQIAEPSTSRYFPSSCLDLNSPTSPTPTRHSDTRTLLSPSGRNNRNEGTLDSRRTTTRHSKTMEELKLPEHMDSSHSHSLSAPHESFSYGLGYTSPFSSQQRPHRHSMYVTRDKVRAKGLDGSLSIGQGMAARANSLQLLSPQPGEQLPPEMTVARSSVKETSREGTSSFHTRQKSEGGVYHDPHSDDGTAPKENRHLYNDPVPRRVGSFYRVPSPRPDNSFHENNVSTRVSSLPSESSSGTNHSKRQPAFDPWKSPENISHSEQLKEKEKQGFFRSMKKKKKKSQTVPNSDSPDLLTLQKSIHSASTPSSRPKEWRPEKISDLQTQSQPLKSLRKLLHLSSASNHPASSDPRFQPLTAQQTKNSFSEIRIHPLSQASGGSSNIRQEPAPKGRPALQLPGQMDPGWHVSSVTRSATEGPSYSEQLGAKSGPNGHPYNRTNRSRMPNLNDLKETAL

Test [4] concerns the target Tyrosine-protein kinase Lck (Homo sapiens, UniProt P06239).
Test [5] addresses Protein kinase C theta type (Homo sapiens, UniProt Q04759).
Another test concerns the target Focal adhesion kinase 1 (Homo sapiens, UniProt Q05397).

Focal adhesion kinase 1, sequence (Q05397 whole entry): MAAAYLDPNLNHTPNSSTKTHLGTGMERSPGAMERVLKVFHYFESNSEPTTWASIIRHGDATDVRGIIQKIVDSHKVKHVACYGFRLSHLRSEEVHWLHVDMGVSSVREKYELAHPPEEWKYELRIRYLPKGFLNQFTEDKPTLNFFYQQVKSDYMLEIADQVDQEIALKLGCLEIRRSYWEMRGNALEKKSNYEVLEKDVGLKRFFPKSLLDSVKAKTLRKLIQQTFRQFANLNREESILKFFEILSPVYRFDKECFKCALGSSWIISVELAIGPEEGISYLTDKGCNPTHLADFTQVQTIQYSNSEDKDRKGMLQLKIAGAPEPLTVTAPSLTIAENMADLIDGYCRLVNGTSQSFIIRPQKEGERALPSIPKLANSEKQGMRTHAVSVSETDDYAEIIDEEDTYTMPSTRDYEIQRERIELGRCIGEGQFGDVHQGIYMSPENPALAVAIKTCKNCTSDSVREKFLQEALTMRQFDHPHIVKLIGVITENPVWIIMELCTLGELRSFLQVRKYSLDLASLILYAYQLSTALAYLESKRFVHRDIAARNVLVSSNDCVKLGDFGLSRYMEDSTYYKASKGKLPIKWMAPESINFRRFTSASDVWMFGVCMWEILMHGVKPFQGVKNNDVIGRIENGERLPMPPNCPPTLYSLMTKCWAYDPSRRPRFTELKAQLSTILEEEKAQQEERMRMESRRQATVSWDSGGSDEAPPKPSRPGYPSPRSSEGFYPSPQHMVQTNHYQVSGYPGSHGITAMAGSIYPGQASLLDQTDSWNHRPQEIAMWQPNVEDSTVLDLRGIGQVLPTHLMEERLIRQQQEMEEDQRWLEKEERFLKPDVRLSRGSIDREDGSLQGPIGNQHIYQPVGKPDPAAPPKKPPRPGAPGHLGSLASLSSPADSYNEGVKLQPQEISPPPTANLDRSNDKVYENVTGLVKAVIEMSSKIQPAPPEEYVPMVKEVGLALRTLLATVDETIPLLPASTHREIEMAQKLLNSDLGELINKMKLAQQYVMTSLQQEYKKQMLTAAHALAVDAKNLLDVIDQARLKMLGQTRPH
Protein kinase C theta type, sequence (Q04759 whole entry): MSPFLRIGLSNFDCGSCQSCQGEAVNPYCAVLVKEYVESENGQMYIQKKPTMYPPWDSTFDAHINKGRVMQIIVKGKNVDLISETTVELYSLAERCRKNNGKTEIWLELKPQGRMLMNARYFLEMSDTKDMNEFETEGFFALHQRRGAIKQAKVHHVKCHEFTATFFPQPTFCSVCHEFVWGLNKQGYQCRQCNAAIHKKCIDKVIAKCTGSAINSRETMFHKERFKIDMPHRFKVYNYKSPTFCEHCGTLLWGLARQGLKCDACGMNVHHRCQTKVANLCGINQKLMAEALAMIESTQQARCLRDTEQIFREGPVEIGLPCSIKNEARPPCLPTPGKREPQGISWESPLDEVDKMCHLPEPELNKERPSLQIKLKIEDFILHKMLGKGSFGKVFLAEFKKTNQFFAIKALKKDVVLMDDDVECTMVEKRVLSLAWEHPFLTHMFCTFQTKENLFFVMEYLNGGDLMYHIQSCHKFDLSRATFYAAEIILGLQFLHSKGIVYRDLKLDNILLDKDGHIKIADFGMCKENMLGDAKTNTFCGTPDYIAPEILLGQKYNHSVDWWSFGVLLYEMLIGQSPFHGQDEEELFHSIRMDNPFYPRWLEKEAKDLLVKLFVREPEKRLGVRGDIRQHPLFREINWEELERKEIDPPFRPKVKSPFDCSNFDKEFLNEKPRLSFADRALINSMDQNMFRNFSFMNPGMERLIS
Tyrosine-protein kinase Lck, sequence (P06239 whole entry): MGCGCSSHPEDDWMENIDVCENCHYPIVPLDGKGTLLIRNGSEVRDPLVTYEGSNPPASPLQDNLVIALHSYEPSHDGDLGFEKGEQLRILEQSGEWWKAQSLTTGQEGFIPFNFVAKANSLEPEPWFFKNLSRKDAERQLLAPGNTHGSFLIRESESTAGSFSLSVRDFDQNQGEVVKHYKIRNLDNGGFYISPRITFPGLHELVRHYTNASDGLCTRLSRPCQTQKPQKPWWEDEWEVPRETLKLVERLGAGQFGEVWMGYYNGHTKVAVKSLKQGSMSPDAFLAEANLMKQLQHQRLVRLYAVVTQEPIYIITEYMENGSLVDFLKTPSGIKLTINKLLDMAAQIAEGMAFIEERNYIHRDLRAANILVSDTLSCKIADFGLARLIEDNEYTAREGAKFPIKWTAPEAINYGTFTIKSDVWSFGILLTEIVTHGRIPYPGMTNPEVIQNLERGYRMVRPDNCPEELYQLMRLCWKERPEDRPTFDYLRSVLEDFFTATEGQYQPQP

A word on the Kd: it is a measure of binding affinity in units of concentration. `C=CCn1c(=O)c2cnc(Nc3ccc(N4CCN(C)CC4)cc3)nc2n1-c1cccc(C(C)(C)O)n1` [ADAVOSERTIB]: the Kd (in test [1]; at Ephrin type-A receptor 1; in test [2]; in test [3]) was > 30 µM (inactive) each time.

`O=C(NOC[C@H](O)CO)c1ccc(F)c(F)c1Nc1ccc(I)cc1F` [MIRDAMETINIB]: the Kd (in test [4]; in test [5]; in test [1]; at Ephrin type-A receptor 1; in test [2]; at Focal adhesion kinase 1) was > 30 µM (inactive) in each case.

For `CNC(=O)c1cccc(-c2ccc3c(N4CCOC[C@@H]4C)nc(N4CCOC[C@@H]4C)nc3n2)c1` [VISTUSERTIB], the Kd (in test [4]; in test [5]; in test [1]; on Ephrin type-A receptor 1; in test [2]; on Focal adhesion kinase 1) was > 30 µM (inactive) in each case. In test [3], the Kd was > 30 µM (inactive).

In the case of `COc1cc2c(N3CCN(C(=O)Nc4ccc(OC(C)C)cc4)CC3)ncnc2cc1OCCCN1CCCCC1` [TANDUTINIB], the Kd in test [1] was > 30 µM (inactive).

Consider `COc1cc2c(Oc3ccc4[nH]c(C)cc4c3F)ncnc2cc1OCCCN1CCCC1` [CEDIRANIB], for which the Kd in test [1] is > 30 µM (inactive).

Regarding `CCN1CCN(Cc2ccc(Nc3ncc(F)c(-c4cc(F)c5nc(C)n(C(C)C)c5c4)n3)nc2)CC1` [ABEMACICLIB], the Kd (in test [4]; in test [5]; in test [1]; at Ephrin type-A receptor 1; on Focal adhesion kinase 1; in test [3]) was > 30 µM (inactive) throughout.

As for `Cn1cnc2c(F)c(Nc3ccc(Br)cc3Cl)c(C(=O)NOCCO)cc21` [SELUMETINIB], in test [1], the Kd was > 30 µM (inactive).

What is called pKd is the negative decadic logarithm of the Kd, by convention in mol/L. Low values mean a large Kd, high ones a small Kd. For the compound `CNC(=O)c1ccc(Nc2ncc(C(F)(F)F)c(NCc3nccnc3N(C)S(C)(=O)=O)n2)cc1` [DEFACTINIB], the Kd (in test [4]; in test [5]; in test [1]; at Ephrin type-A receptor 1; in test [2]) was > 30 µM (inactive) each time. In addition, the pKd in test [3] was 7.80.

On to `CC1(COc2ccc3c(c2)ncn3-c2ccc3cccc(N4CCC(N)CC4)c3n2)COC1` [CRENOLANIB], for which the Kd (in test [1]; at Ephrin type-A receptor 1; in test [2]; at Focal adhesion kinase 1; in test [3]) was > 30 µM (inactive) in each case.

As for `CN(C)C/C=C/C(=O)Nc1cc2c(Nc3ccc(F)c(Cl)c3)ncnc2cc1O[C@H]1CCOC1` [AFATINIB], the Kd in test [1] is > 30 µM (inactive).

With `Cn1c(=O)c(F)c(Nc2ccc(I)cc2F)c2c(=O)n(C[C@@H](O)CO)cnc21` [TAK-733], the Kd (in test [4]; in test [5]; in test [1]; on Ephrin type-A receptor 1; in test [2]; at Focal adhesion kinase 1) was > 30 µM (inactive) each time.

On to `Cc1cc(-c2cc(OC(=O)c3ccccc3)ccc2Cl)cc2nnc(Nc3ccc(OCCN4CCCC4)cc3)nc12` [TG100-801], for which the Kd was 1.47 µM (active) in test [4]; > 30 µM (inactive) in test [5]; > 30 µM (inactive) in test [1]; > 30 µM (inactive) in test [2]; > 30 µM (inactive) on Focal adhesion kinase 1; > 30 µM (inactive) in test [3].

For `CN(c1ncccc1CNc1nc(Nc2ccc3c(c2)CC(=O)N3)ncc1C(F)(F)F)S(C)(=O)=O` [PF-00562271], the Kd in test [1] was > 30 µM (inactive); at Ephrin type-A receptor 1 it was > 30 µM (inactive); in test [2], 0.089 µM (active); in test [3] it was > 30 µM (inactive).

As to `O=C(NC[C@H](O)CO)c1ccncc1Nc1ccc(I)cc1F` [PIMASERTIB], the Kd (in test [4]; in test [5]; in test [1]; in test [2]; on Focal adhesion kinase 1; in test [3]) was > 30 µM (inactive) in each case.

`CC(C)(O)CC(=O)NCCn1ccc2ncnc(Nc3ccc(Oc4cccc(C(F)(F)F)c4)c(Cl)c3)c21` [TAK-285]: the Kd (in test [5]; in test [1]; at Ephrin type-A receptor 1; in test [2]; at Focal adhesion kinase 1; in test [3]) was > 30 µM (inactive) throughout.

For `CNC(=O)c1cc(COc2nnc(Nc3ccc(Cl)cc3)c3ccoc23)ccn1` [TELATINIB], the Kd (in test [4]; in test [5]; in test [1]; on Ephrin type-A receptor 1; in test [2]; on Focal adhesion kinase 1) was > 30 µM (inactive) in each case.

As for `S=C(NCc1ccc2c(c1)OCO2)N1CCN(c2ncnc3c2oc2ccccc23)CC1` [AMUVATINIB], the Kd (in test [4]; in test [5]; in test [1]; in test [2]; on Focal adhesion kinase 1) was > 30 µM (inactive) throughout.

In the case of `Cc1ccc(C(=O)Nc2ccc(Oc3cc4cnn(C)c4cc3-c3cn[nH]c3)c(F)c2)c(=O)n1-c1ccc(F)cc1` [MERESTINIB], the Kd (in test [4]; in test [5]; in test [1]; on Ephrin type-A receptor 1; in test [2]; on Focal adhesion kinase 1) was > 30 µM (inactive) each time.

Take `O=S(=O)(c1cccc2c(O)nccc12)N1CCCNCC1` [HYDROXYFASUDIL]: the Kd (in test [5]; in test [1]; at Ephrin type-A receptor 1; in test [2]; in test [3]) was > 30 µM (inactive) each time.

For the compound `O=C(O)c1ccc2c(c1)nc(Nc1cccc(Cl)c1)c1ccncc12` [SILMITASERTIB], the Kd (in test [4]; in test [1]; in test [2]; on Focal adhesion kinase 1; in test [3]) was > 30 µM (inactive) each time.

With `C[C@]1(O)C[C@@H](c2nc(-c3ccc4ccc(-c5ccccc5)nc4c3)c3c(N)nccn32)C1` [LINSITINIB], the Kd in test [5], in test [1] and in test [2] was > 30 µM (inactive) throughout.

For `Cn1c(=O)n(-c2ccc(C(C)(C)C#N)cc2)c2c3cc(-c4cnc5ccccc5c4)ccc3ncc21` [DACTOLISIB], the Kd (in test [1]; at Ephrin type-A receptor 1; in test [2]) was > 30 µM (inactive) in each case.
